Data taken from patent US9499543B2, “Polymorph forms” (RaQualia Pharma Inc., priority 2013, dated 2016).

Key:
[1] = Hygroscopicity study by dynamic vapor sorption (DVS) analysis; type: physicochemical; settings: under 40%, 80%, and 90% relative humidity (RH) at 25 °C, comparing with compound prepared in EXAMPLE 2
Procedure: Hygroscopicity study by dynamic vapor sorption analysis (DVS)
Hygroscopicity study is performed using Surface Measurement Systems DVS-1. The sample is placed on a microbalance in the instrument and the weight change during the sorption/desorption cycle at 25° C. is monitored. One of the sorption/desorption programs consists of a sorption scan from 0 to 95% relative humidity (RH) and a desorption scan from 95 to 10% RH. The other consists of a sorption scan from 40 to 95% RH and desorption scan from 95 to 0% RH, followed by a second sorption scan from 0 to 40% RH. Both programs are carried out at 5% RH increments and the sample is allowed to equilibrate for 360 minutes or until equilibration had been attained at each step. At the end of the DVS experiment the sample is measured by PXRD.

[2] = Photostability / storage stability study; type: physicochemical
Procedure: Photostability samples are stored in open dishes with quartz glass covers and a second set of 25° C./60% RH, and 40° C./75% RH samples which are stored in open round amber glass bottles covered with gauze.

For CN1N=C2CCN(C(=O)[C@@H](COCc3ccccc3)NC(=O)C(C)(C)N)C[C@@]2(Cc2ccccc2)C1=O.O=C(O)C(O)C(O)C(=O)O [Polymorph Form I, 2-amino-N-[2-(3a-(R)-benzyl-2-methyl-3-oxo-2,3,3a,4,6,7-hexahydro-pyrazolo[4,3-c]pyridin-5-yl)-1-(R)-benzyloxymethyl-2-oxo-ethyl]-isobutyramide L-tartrate Polymorph Form I], the moisture gain [1] was under 2%, the loss in potency ([2]; any of the stability samples over 3 months) was “No significant loss” and the “changes in the appearance, the X-ray diffraction patterns, and IR spectra” value ([2]; storage over 3 months, photostability, 25°C/60% RH and 40°C/75% RH samples) was “no significant changes”.
